Laboratory results taken from patent publication US8367737B2, “Method of using biothionol and biothionol-like compounds as anti-angiogenic agents” (Southern Research Institute, priority 2007, dated 2013).
Where a name gives a salt, the structure may show the parent alone.

Columns and labels:
[1] = system: Endothelial cells (HUVEC); assay: Endothelial cell migration assay; format: cell-based; settings: Homo sapiens, read-out: Inhibition in Endothlial migration
Experimental: Endothelial cell migration is a key step of the angiogenesis process, which is crucial for on-site recruitment of blood vessel formation. The trans-well filter/inserts chamber of Biocoat Endothelial Cell Migration Angiogenesis System (BD Biosciences) is used for endothelial cell migration assay, which is a 24-Transwell chamber plate containing 3-μm pore size inserts coated with human fibronectin. The inserts are incubated at 37° C. with 0.1% bovine serum albumin containing endothelial cell basal medium for 1 hour. Endothelial cells (HUVEC) are starved with 0.1% bovine serum albumin in endothelial cell basal medium for 4 to 5 hours before the cell harvest and then seeded (1×10^5 per well) in upper chambers of the Transwell plate with various treatments in 100 ul of 0.1% bovine serum albumin in endothelial cell basal medium. The full growth medium that contains various chemoattractants is added in the lower chambers. The cells are allowed to migrate for 22±1 hours at 37° C. Unmigrated cells at the inside of the inserts are carefully removed with a Q-tip. Migrated cells at the lower part of the Transwell inserts are then fixed with 4% paraformaldehyde, stained with Hoechst 33342, and photographed under a fluorescent microscope. Three microscopic view fields of each filter/insert are analyzed for the number of migrated cells. Triplicate filter/insert chamber cultures are carried for each test concentration and control.

[2] = system: Endothelial cells (HUVEC); assay: Endothelial tube formation assay; format: cell-based; settings: Homo sapiens, read-out: Inhibition in Endothlia Tube-Formation
Experimental: Human endothelial cells are cultured in vitro on extracellular matrix, which stimulates the attachment and differentiation of endothelial cells into tubules. The endothelial tube formation assay is based on this phenomenon. Endothelial cells (HUVEC) are seeded (1.5×10^4 per well) in a 96-well plates coated with extracellular matrix and treated with the target compounds at different concentrations with the full growth medium in triplicate. The cells are allowed to form endothelial tubes at 37° C. for about 18 hours and photographed under an inverted light microscope. The tubule lengths are quantified using image analysis software, Image-Pro Plus (Media Cybernetics, Inc., Silver Spring, Md.). Data are expressed as average tube lengths of three view fields for each well and triplicate wells for each treatment condition. IC50 values are calculated based on the dose curve.

[3] = system: Chicken embryo chorioallantoic membrane; assay: Chick chorioallantoic membrane (CAM) assay; format: in vivo; settings: 10 μg; vascular density index
From the text: Chicken embryo chorioallantoic membrane provides an ideal in vivo model for the physiologic process of angiogenesis. Angiogenic modulators applied on methylcellulose discs placed on top of chicken embryo chorioallantoic membrane are able to alter the development of new blood vasculature. See Staton et al, Current Methods for Assaying Angiogenesis in vitro and in vivo, INT. J. EXP. PATHOL., 85:233-48 (2004), which is incorporated herein by reference in its entirety. The angiogenesis chorioallantoic membrane assay is used for ex vivo evaluation of the anti-angiogenic potential of synthetic compounds. Fertilized chicken eggs are incubated at 37.5° C. in a humidified egg incubator with forced air circulation. On embryo Day 3, eggs are cracked open and embryos are transferred into […] Petri plates to continue their development in a cell culture incubator at 37.5° C. Pre-made methylcellulose discs in about 2 mm in diameter are gently implanted on top of embryo chorioallantoic membrane on embryonic Day 5 and then testing compound in solution or control vehicle is applied on top of methylcellulose disc. The embryos are incubated for two more days in the cell culture incubator. The chorioallantoic membranes are examined and quantitatively analyzed for new blood vessel formation at embryonic Day 7. The treatment effects on angiogenesis are evaluated by determining vascular density index (VDI) of each CAM with viable chicken embryos. The VDI represents the number of intersections made by blood vessels with three equidistant concentric circles on the area covered by methylcellulose discs by using Image Pro Plus software. The data are expressed as average VDI based on the quantitative analysis for each treatment group (N≧5) with stander deviation.

lung fibroblasts LL47 = assay: Cell proliferation assay (CellTiter-Glo), fibroblasts; format: cell-based; settings: Homo sapiens, Fibroblast; 72 hours of treatment, growth medium
Experimental: (§1) Human primary cell lines, arterial endothelia, such as HAEC and HPAEC, venous endothelia HUVEC (from Cambrex BioScience Rockland Inc.), and lung fibroblasts LL47 (from the American Type Culture Collection) are cultured by following the instruction and used to evaluate the target compounds for their differential activity against human endothelia verses fibroblasts by CellTiter-Glo Luminescent Cell viability Assay. This assay, generating luminescent signals, is based on quantification of ATP levels in cell cultures. Amount of ATP produced in cell culture reflects the number of viable cells. […] Cells are seeded in 96-well plates with their growth medium, about 5×10^3 cell per well. After 24 hours, various doses of the target compounds are added to the cultures, having four replicates for each dose. After 72 hours of treatment, CellTiter-Glo reagent is added to the cultures following the manufacturer's instruction and luminescence is measured. The control groups are given DMSO vehicle only. IC50s of target compounds for endothelia and fibroblasts proliferation in their growth medium are determined based on the dose response curve and plotted against the range of concentrations.

venous endothelia HUVEC = assay: Cell proliferation assay (CellTiter-Glo), venous endothelia; format: cell-based; settings: Homo sapiens, 72 hours of treatment, growth medium
Experimental: as §1

[4] = system: arterial endothelia, such as HAEC and HPAEC; assay: Cell proliferation assay (CellTiter-Glo), arterial endothelia; format: cell-based; settings: Homo sapiens; 72 hours of treatment, growth medium
Experimental: as §1

## CN(C)CCCN1c2ccccc2CCc2ccc(Cl)cc21 [Clomipramine hydrochloride]
[1]
  inhibition at 2 µM: 58%
  inhibition at 8 µM: 63%
[2]
  inhibition at 2 µM: 12%
  inhibition at 8 µM: 26%
[3]
  Inhibition in CAM Assay: 19%

## Cc1nc2sccn2c(=O)c1CCN1CCC(=C(c2ccc(F)cc2)c2ccc(F)cc2)CC1 [Ritanserin]
[1]
  inhibition at 2 µM: 55%
  inhibition at 8 µM: 65%
Lung fibroblasts LL47
  IC50: > 50 µM
Venous endothelia HUVEC
  IC50: 10.5 µM
[2]
  inhibition at 2 µM: 11%
  inhibition at 8 µM: 33%
[4]
  IC50: 11 µM
[3]
  Inhibition in CAM Assay: 21%

## CCCCc1oc2ccccc2c1C(=O)c1cc(I)c(OCCN(CC)CC)c(I)c1 [Amiodarone hydrochloride]
[1]
  inhibition at 2 µM: 36%
  inhibition at 8 µM: 38%
[2]
  inhibition at 2 µM: 33%
  inhibition at 8 µM: 33%
[3]
  Inhibition in CAM Assay: 27%

## CC(C)(C)c1ccc(C(O)CCCN2CCC(C(O)(c3ccccc3)c3ccccc3)CC2)cc1 (centres unmarked) [Terfenadine]
[1]
  inhibition at 2 µM: 34%
  inhibition at 8 µM: 100%
Lung fibroblasts LL47
  IC50: 7 µM
Venous endothelia HUVEC
  IC50: 5.5 µM
[2]
  inhibition at 2 µM: 20%
  inhibition at 8 µM: 43%
[4]
  IC50: 3 µM
[3]
  Inhibition in CAM Assay: 28%

## OCCN1CCN(CCCN2c3ccccc3Sc3ccc(Cl)cc32)CC1 [Perphenazine]
[1]
  inhibition at 2 µM: 43%
  inhibition at 8 µM: 46%
Lung fibroblasts LL47
  IC50: 10.8 µM
Venous endothelia HUVEC
  IC50: 11.1 µM
[2]
  inhibition at 2 µM: 7%
  inhibition at 8 µM: 22%
[4]
  IC50: 4.2 µM

## Oc1c(Cl)cc(Cl)cc1Sc1cc(Cl)cc(Cl)c1O [Bithionol]
[1]
  inhibition at 2 µM: 5%
  inhibition at 8 µM: 100%
Lung fibroblasts LL47
  IC50: 10.5 µM
Venous endothelia HUVEC
  IC50: 6 µM
[2]
  inhibition at 2 µM: 19%
  inhibition at 8 µM: 38%
[4]
  IC50: 2 µM
[3]
  Inhibition in CAM Assay: 30%
